Measurements published in paper PMC10021052, “Novel multivalent S100A8 inhibitory peptides attenuate tumor progression and metastasis by inhibiting the TLR4-dependent pathway” (Cancer Gene Therapy, 2023).
“Also recorded” adds a separate entry of the source.

How the values were obtained:
S100A8-TLR4/MD-2 complex = assay: Competitive inhibition of S100A8-TLR4/MD-2 binding (ELISA, S100A8 immobilized; also immunoprecipitation); parameters: species or system human; conditions: for competitive inhibition, potency compared with parent: ELISA, peptide3A5 vs peptide #3 (Fig. 3B), divalent vs monomer (Fig. 4A); for competitive inhibitory activity against TLR4/MD-2, peptide3A5-derived peptides: competitive inhibitory assay, Fig. 7B, E, *P < 0.05 vs TLR4/MD-2/S100A8
Experimental: (§1) S100A8 recombinant protein was purified as previously described. These proteins were immobilized on Maxisorp plates (Thermo Fisher Scientific, Waltham, MA, USA), followed by blocking with protein-free blocking buffer (Thermo Fisher Scientific). TLR4/MD-2 recombinant proteins with various concentrations of candidate peptides were then added to the indicated S100A8-immobilized ELISA plates for 2 h. The plates were washed, incubated with anti-TLR4 antibody, and HRP-conjugated secondary antibody, followed by the addition of substrate. The reaction was stopped by addition a 2N H2SO4 solution. Absorbance OD450/OD650 was measured using a microplate reader (Thermo Fisher Scientific). Maxisorp plates were also used for peptide coating. After blocking with protein-free blocking buffer, the coated plates were washed, and TLR4/MD-2 recombinant protein (2 µg/ml) was added to each well. The plates were incubated with a TLR4 antibody followed by horseradish peroxidase (HRP)-labeled anti-rabbit IgG. For detection of IL8 and VEGF in culture supernatants, SW480 cells were pretreated with the indicated peptides, and followed by stimulation with S100A8 for 24 h. The amount of interleukin-8 (IL-8) or VEGF in the supernatants were analyzed by ELISA kits (R&D Systems, Mineapolis, MN) according to the manufacturer’s instructions.
(§2) Fig. 2 Identification of S100A8 binding sites to human TLR4/MD-2. […] TLR4/MD-2 recombinant proteins were immobilized to the ELISA plate. After blocking, a full length or deletion mutant of S100A8 was added to the plate. The more detailed methods are described in Materials and Methods. […] B A series of overlapping S100A8 synthetic peptides. The TLR4/MD-2 recombinant proteins were added to each well of peptide immobilized plates. The affinity to TLR4/MD-2 was determined. Data are shown as mean ± SD. C The competitive activity was determined using ELISA. Data are shown as mean ± SD. D The TLR4/MD-2 was mixed with S100A8 with/without the indicated peptides, and immunoprecipitated using an anti-TLR4 antibody. TLR4 or S100A8 was visualized. Similar results were obtained in three independent experiments. […] Total RNAs from SW480 cells with/without treatment of the peptide candidates were extracted and qPCR analysis was performed using relevant primer sets and SYBR green. Relative expression levels were compared. […] TEXT PRINTED IN THE PICTURE: (A) Full length: TLR4/MD-2 binding: + | (A) S100A8-ΔC: TLR4/MD-2 binding: − | (A) S100A8-N: TLR4/MD-2 binding: −
(§3) Fig. 4 Improvement of competitive inhibition activity by divalent peptide3A5. A The binding capacity was measured at the indicated concentration using an ELISA-based assay. Similar results were obtained in three independent experiments. B SW480 cells were pretreated with 2.5 µM of divalent peptide3A5, and then stimulated with human S100A8 recombinant protein. After 30 min, cell lysates were subjected to western blotting using the indicated antibody. The divalent peptide#3 or peptide3A5 reduced the expression of S100A8-mediated IL-8 (C) and VEGF (D) induction. Total RNAs from SW480 cells with/without treatment of the peptide candidates were extracted and qPCR analysis was performed using relevant primer sets and SYBR green. Relative expression levels were compared. Peptide #3 suppresses S100A8-mediated IL-8(E) and VEGF (F) secretion in SW480 cells.

PKH26-labeled LLC cells = assay: Lung dissemination of PKH26-labeled LLC cells in TCM-sensitized mice; assay type: in vivo, C57BL/6J mice; conditions: 10 mg/kg i.p. 1 h before last TCM injection; lungs 16 h after cells; 5–6 mice per group; *P < 0.05 vs control
SW480 cells [1] = assay: qPCR, S100A8-mediated IL-8 and VEGF mRNA induction in SW480 cells; assay type: cell-based, human; conditions: qPCR, normalized to β-actin
Experimental: SW480 cells were treated with S100A8 in Dulbecco’s Modified Eagle Medium/HamF12 supplemented with 0.1% bovine serum albumin for cytokine induction. Total RNA was extracted using the RNeasy Mini Plus (Qiagen, Hilden, Germany). Complementary DNA was synthesized using the PrimeScript 1st Strand Synthesis kit (Takara Bio, Japan). Quantitative PCR (qPCR) analysis was performed using the PowerUp^TM SYBR^TM Green mixture (Thermo Fisher Scientific) and the StepOnePlus Real Time PCR System (Thermo Fisher Scientific). Gene expression levels were calculated from Ct values, and the relationship between the Ct value and the logarithm of the copy number of a target gene was confirmed to be on a linear line using the corresponding isolated DNA and its serial dilutions as a standard. Thus, the gene expression levels of IL-8 and VEGF were normalized against that of β-actin in each sample. The following primers were used; β-actin, 5′-[…]-3′ and 5′-[…]-3′; IL-8, 5′-[…]-3′ and 5′-[…]-3′; VEGF, 5′-[…]-3′ and 5′-[…]-3′.
as §2, §3

human TLR4/MD-2 complex [2] = assay: ELISA, TLR4/MD-2 binding to immobilized S100A8-derived peptides (overlapping peptides, alanine scan); conditions: alanine scan on peptide #3, compared with parental peptide#3, peptide3A5 *P = 0.013
Experimental: as §1, §2
Fig. 3 Identification of high affinity peptides to TLR4/MD-2 using alanine scanning based on the peptide #3 amino acid sequences. A Lists of peptides used for alanine scanning. […] Similar results were obtained in three independent experiments.

TLR4/MD-2 complex = target: T1, TLR4/MD-2 complex (Homo sapiens, UniProt O00206+Q9Y6Y9); assay: Divalent peptide library screening and ILVIK derivatives, binding to TLR4/MD-2 (ELISA); conditions: ELISA-based, Fig. 7A, D
T1 construct: TLR4/MD-2 recombinant protein (2 µg/ml) was added to each well
Experimental: Spot synthesis of divalent peptides on a cellulose membrane was performed using a ResPep SL SPOT synthesizer (INTAVIS Bioanalytical Instruments AG, Koeln, Germany) as described previously. Briefly, Fmoc-β-Ala-OH (Watanabe Chemical Industries, Hiroshima, Japan) was used in the first cycle, followed by amino hexanoic acid as a spacer. Fmoc-Lys(Fmoc)-OH (Watanabe Chemical Industries) was used for the next cycle to form two branches in the peptide chain for the subsequent synthesis of the various motifs. The synthesis of each peptide was confirmed by staining the membrane using bromophenol blue (1% in N, N′-dimethylformamide), which reacts with free amino residues. Free amino residues are produced only after the completion of all reactions and before deprotection of the side chain residues. […]
S100A8 recombinant protein was purified as previously described. […] Absorbance OD450/OD650 was measured using a microplate reader (Thermo Fisher Scientific). […] The amount of interleukin-8 (IL-8) or VEGF in the supernatants were analyzed by ELISA kits (R&D Systems, Mineapolis, MN) according to the manufacturer’s instructions.
Fig. 7 Isolation of multivalent S100A8 inhibitory peptides using divalent peptide libraries based on the sequences of peptide3A5. […] The binding affinities to TLR4/MD-2 complex were determined using an ELISA-based assay. […]

[3] = target: tetravalent ILVIK (human); assay: ELISA; tetravalent ILVIK immobilised; after blocking TLR4/MD-2 proteins added at various concentrations (Fig. 7F)
[4] = tested on: SW480-transplanted xenograft; assay: Tumor growth in SW480-transplanted xenograft model; assay type: in vivo, Balb nu/nu mice; conditions: SW480 xenograft, various concentrations every 3 days, *P < 0.05 vs control
[5] = tested on: tumor cells and macrophages; assay: Cytokine/chemokine induction in tumor cells and macrophages; assay type: cell-based; conditions: possible mechanism scheme, Fig. 7I
human TLR4/MD-2 complex [6] = assay: ELISA, S100A8 protein or mutant binding to TLR4/MD-2; conditions: recombinant S100A8 full length or mutant
Experimental: as §1
Fig. 2 Identification of S100A8 binding sites to human TLR4/MD-2. […] TLR4/MD-2 recombinant proteins were immobilized to the ELISA plate. After blocking, a full length or deletion mutant of S100A8 was added to the plate. The more detailed methods are described in Materials and Methods. […] B A series of overlapping S100A8 synthetic peptides. The TLR4/MD-2 recombinant proteins were added to each well of peptide immobilized plates. The affinity to TLR4/MD-2 was determined. Data are shown as mean ± SD. C The competitive activity was determined using ELISA. Data are shown as mean ± SD. D The TLR4/MD-2 was mixed with S100A8 with/without the indicated peptides, and immunoprecipitated using an anti-TLR4 antibody. TLR4 or S100A8 was visualized. […]

mouse TLR4/MD-2 complex = conditions: ref [8]; cited from earlier work
SW480 cells [7] = assay: ELISA, IL-8 and VEGF secretion of SW480 cells; assay type: cell-based, human; conditions: SW480 cells; data not shown
Experimental: as §1

T1 sequence (O00206 24-631 limits assumed): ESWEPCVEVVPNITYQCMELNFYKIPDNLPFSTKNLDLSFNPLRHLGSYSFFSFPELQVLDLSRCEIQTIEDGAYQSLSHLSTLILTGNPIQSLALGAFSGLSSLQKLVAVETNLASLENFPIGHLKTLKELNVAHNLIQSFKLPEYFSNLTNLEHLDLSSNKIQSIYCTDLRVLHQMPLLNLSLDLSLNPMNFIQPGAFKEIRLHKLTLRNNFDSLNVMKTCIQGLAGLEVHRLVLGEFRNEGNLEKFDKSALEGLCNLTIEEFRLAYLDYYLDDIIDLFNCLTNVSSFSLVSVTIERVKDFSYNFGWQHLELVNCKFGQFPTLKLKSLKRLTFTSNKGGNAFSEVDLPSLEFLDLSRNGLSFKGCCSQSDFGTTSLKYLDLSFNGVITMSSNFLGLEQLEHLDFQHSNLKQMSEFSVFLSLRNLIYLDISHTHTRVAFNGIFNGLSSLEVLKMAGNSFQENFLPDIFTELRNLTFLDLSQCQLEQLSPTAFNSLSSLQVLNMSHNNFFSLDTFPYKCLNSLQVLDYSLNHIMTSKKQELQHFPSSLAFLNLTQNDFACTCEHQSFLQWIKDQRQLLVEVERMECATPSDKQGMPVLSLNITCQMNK
T1 sequence (Q9Y6Y9 17-160 partner limits assumed): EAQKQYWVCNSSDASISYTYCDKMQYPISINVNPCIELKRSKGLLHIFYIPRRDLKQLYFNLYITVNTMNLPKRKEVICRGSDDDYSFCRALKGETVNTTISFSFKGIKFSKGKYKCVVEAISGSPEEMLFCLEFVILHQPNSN

For FQEFAILVIK [peptide3A5], the “competitive inhibition, potency compared with parent” value (S100A8-TLR4/MD-2 complex) was “competed with the S100A8-TLR4/MD-2 complex at a lower dose than peptide #3”, the “competitive inhibition, potency compared with parent” value (S100A8-TLR4/MD-2 complex; listed as Peptide3A5) was “more potent for competitive inhibition on S100A8-TLR4/MD-2 complex than peptide #3” and the “pulmonary recruitment of PKH26-labeled LLC cells / lung metastasis” value (PKH26-labeled LLC cells) was “suppressed the pulmonary recruitment of tumor cells”. For the same molecule, the “S100A8-mediated VEGF induction (mRNA)” value (SW480 cells [1]) was “reduced”, the “S100A8-mediated IL-8 induction (mRNA)” value (SW480 cells [1]; *P < 0.05 vs S100A8) was “reduced” and the “affinity for TLR4/MD-2, alanine scanning” value (human TLR4/MD-2 complex [2]) was “increased the affinity for TLR4/MD-2”. The “affinity for TLR4/MD-2, alanine scanning” value (human TLR4/MD-2 complex [2]; listed as Peptide3A5) was “increased binding affinity to TLR4/MD-2”.

For “ILVIK [monomeric ILVIK, monovalent ILVIK peptide, N-terminus acetylated]”, the “binding to TLR4/MD-2, peptide3A5-derived peptides” value (TLR4/MD-2 complex) was “did not perform these activities” and the “competitive inhibitory activity against TLR4/MD-2, peptide3A5-derived peptides” value (“competitive inhibitory activity” below) (S100A8-TLR4/MD-2 complex) was “did not perform these activities; also recorded: failed to obtain the competitive inhibitory activities against the TLR4/MD-2 complex”.

With “FQEFA [FQEFA dimer, dimer of FQEFA, peptide3A5 with the last five amino acids deleted]” the “binding to TLR4/MD-2, peptide3A5-derived peptides” value (TLR4/MD-2 complex) was “diminished the capacity of binding to TLR4/MD-2”.

In the case of “Lys77: peptide #3 with substitution of Lys77 with alanine (FQEFLILVIA)”, the “affinity for TLR4/MD-2, alanine scanning” value (human TLR4/MD-2 complex [2]) is reported as “diminished the S100A8 activity of TLR4/MD-2 binding”.

“human TLR4/MD-2 complex (from UniProt O00206 24-839; Q9Y6Y9 19-160)” gave a Kd [3] of 4.58 to 8.78 nM.

With “ILVIK [Divalent ILVIK, divalent peptide with two ILVIK motifs on a monolysine core, N-terminus acetylated]” the “tumor growth, multivalent ILVIK” value [4] was “inhibits tumor growth”, the “tumor growth, multivalent ILVIK” value ([4]; listed as divalent ILVIK) was “inhibited tumor growth in subcutaneously transplanted SW480 cells in a dose-dependent manner” and the “competitive inhibitory activity” value (S100A8-TLR4/MD-2 complex; listed as deletion mutant of the FQEFA amino acid sequences) was “sustained the competitive inhibitory activity”. For the same molecule, the “competitive inhibitory activity” value (S100A8-TLR4/MD-2 complex; listed as divalent ILVIK) was “candidate inhibitor; also recorded: competitively inhibited S100A8 binding to TLR4/MD-2” and the induction of cytokines/chemokines [5] was “suppress the induction of cytokines/chemokines in both tumor cells and macrophages”.

For “human S100A8: full length human S100A8 recombinant protein”, the “binding to human TLR4/MD-2 (in words)” value (human TLR4/MD-2 complex [6]) was “binds to human TLR4/MD-2 complex”.

B1: mouse S100A8: mouse S100A8 protein (protein, UniProt P27005 2-89, looked up)
Protein S100-A8: PSELEKALSNLIDVYHNYSNIQGNHHALYKNDFKKMVTTECPQFVQNINIENLFRELDINSDNAINFEEFLAMVIKVGVASHKDSHKE
For B1, the “binding to mouse TLR4/MD-2” value (mouse TLR4/MD-2 complex) is given as “binds to the mouse TLR4/MD-2 complex via the carboxyl-terminal region”.

B2: S100A8-Lys77Ala: S100A8-Lys77Ala recombinant protein (protein)
chain: MLTELEKALNSIIDVYHKYSLIKGNFHAVYRDDLKKLLETECPQYIRKKGADVWFKELDINTDGAVNFQEFLILVIAMGVAAHKKSHEESHKE
In the case of B2, the “binding to human TLR4/MD-2 (in words)” value (human TLR4/MD-2 complex [6]) is reported as “hardly bound to the TLR4/MD-2 complex”, the “binding to human TLR4/MD-2 (in words)” value (human TLR4/MD-2 complex [6]; listed as S100A8Lys77Ala) is reported as “decreased affinity to TLR4/MD-2” and the “IL-8 production, S100A8 mutant” value (SW480 cells [7]) is reported as “had no effect on IL-8 production”.
